# Patent publication US20250085272A1, “METHODS AND SYSTEMS FOR MODULATING AND MODELING AGING AND NEURODEGENERATION DISEASES” (MEMORIAL SLOAN-KETTERING CANCER CENTER, priority 2022, published 2025)
# “Also recorded” adds a separate entry of the source.
# Experiments:
# Assay type in all cases: cell-based, human
# wild-type neurons = experiment: Western blotting for pTau(S202/T205) and total Tau, wild-type neurons; settings: wild-type neurons (FIG. 23C)
# Text: (§1) Western blotting. Samples for western blotting were harvested, pelleted and snap frozen. Cell pellets were resuspended in RIPA buffer supplemented with Halt protease and phosphatase inhibitors (ThermoFisher) followed by centrifugation to clarify the sample. Protein concentration was quantified using the Precision Red Advanced Protein Assay according to manufacturer's instructions and equal amounts of protein were mixed with NuPAGE LDS Sample Buffer and NuPAGE Sample Reducing Agent and heated to 72 degrees for 10 mins. A total of 5-20 μg of protein was separated on NuPAGE Novex 4-12% Bis Tris gels and transferred by wet blotting onto PVDF membranes. Membranes were blocked in 5% milk protein or 5% BSA when probing for the phospho-Tau. Primary antibodies used for this study were: β-ACTIN (Sigma, A2228-100UL), BAG1 (Santa Cruz, sc-33704), BAG3 (Abcam, ab47124), Cas9 (Cell Signaling Technologies; 14697S), GAPDH-HRP (Santa Cruz Biotech, sc-47724 HRP), LMNB1 (Abcam, ab16048), NAE1(Cell Signaling Technologies, 14321S), NEDD8 (Abcam, ab81264), p21 (Cell Signaling Technologies, 2947), TAU (Dako, A0024), p-TAU(S202/T205) (Thermo Fisher; MN1020), UBA3 (Abcam, ab124728). Band intensity was visualized using BioRad ChemiDoc XRS+molecular imager. After imaging the membrane was re-probed with either GAPDH or β-ACTIN antibodies for normalization. Band intensity was quantified using Fiji.
# [1] = test system: neurons with the PSEN^M146V/M146V mutation; experiment: Viability of neurons with the PSEN^M146V/M146V mutation; settings: PSEN^M146V/M146V neurons (FIG. 25B)
# APP^swe/swe neurons [2] = experiment: Western blotting for p21, LMNB1, BAG1 and BAG3; settings: 1 μM from DIV50-DIV60
# Text: as §1
# AD neurons = experiment: Nuclear roundness and nuclear area of AD neurons
# [3] = test system: APP^swe/swe cortical neurons; experiment: pATM immunofluorescence (DNA damage); settings: 1 μM for 7 days
# Procedure: Immunocytochemistry. Cells were fixed in 4% paraformaldehyde for 10 mins then permeabilized in PBS+0.3% Triton. Cells were blocked in 5% donkey or goat serum for 1 h. Primary antibody incubation was performed overnight. Primary antibodies used in this study were: p-ATM (S1981) (Thermo Fisher; MA1-2020), Cas9 (Cell Signaling Technologies; 14697S), COL1A1 (R&D; AF6220), FOXG1 (Takara; M227), Ki67 (Dako; M7240), MAP2 (Thermo Fisher; PA1-16751), NANOG (Cell Signaling Technologies; 4903S), PAX6 (Biolegend; 901301), TAU (Thermo Fisher; MN1000), p-TAU (S235) (Thermo Fisher; PA5-104785). For all image quantifications images were taken from 3 individual wells and averaged. This was repeated three times with neurons from independent differentiations. Volocity was used to count MAP2+ and Ki67+ cells with pyknotic. DAPI^bright nuclei excluded from the cell count. FIJI was used for TAU and pATM quantifications.
# [4] = test system: conjugation of NEDD8 to target proteins; experiment: Western blotting for conjugation of NEDD8 to target proteins in cortical neurons; settings: 1 μM; postmitotic cortical neurons; 3 hours or 7 days of treatment
# Text: as §1
# APP^swe/swe neurons [5] = experiment: Senescence associated β-gal, brightfield images; settings: 1 μM for 10 days
# [6] = test system: H9-Nurr1^GFP neurons having the LRRK2 G2019S mutation; experiment: Viability of neurons with the LRRK2 G2019S mutation; settings: LRRK2 G2019S neurons (FIG. 26C)
# APP^swe/swe neurons [7] = experiment: Western blotting for pTau(S202/T205) and total Tau, APP^swe/swe neurons
# Text: as §1
# [8] = test system: wild-type or APP^swe/swe neurons; experiment: Flow cytometry for aging hallmarks (proteostasis, heterochromatin, senescence)
# Procedure: Flow Cytometry. Neuronal cultures were dissociated to single cell suspensions using Accutase (Innovative Cell Technologies) supplemented with Neuron Isolation Enzyme for Pierce™ (Thermo 88285) solution at 1:50. Single cell suspensions were stained with Zombie UV™ Fixable Viability Kit (Biolegend 423107) at 1:2500 in PBS for 15 minutes at room temperature, followed by fixation in 4% Paraformaldehyde for 10 minutes (4° C.). Cells stained with CellEvent Senescence Green (Thermo C10840) were done so at 1:250 in assay buffer for 2 hours at 37° C. For intracellular probes, cells were permeabilized in 0.5% triton-x for 10 minutes (4° C.), and blocked in 5% BSA for 10 minutes (4° C.). Cells were stained with H3k9me3-PE antibody (Cell Signaling Technologies #13969S) diluted 1:200, and Proteostat (Enzo Life Sciences ENZ-51023-KP050) diluted 1:2500, in 5% BSA in PBS for 30 minutes at 4° C. Cells were analyzed on the Cytek Aurora Flow Cytometer. Experiments were repeated with cells from 3 independent differentiations.
compound,measurement,setting,value
"NS(=O)(=O)OC[C@@H]1C[C@@H](n2ccc3c(N[C@H]4CCc5ccccc54)ncnc32)C[C@@H]1O [MLN4924, [(1S,2S,4R)-4-[4-[[(1S)-2,3-Dihydro-1H-inden-1-yl]amino]-7H-pyrrolo[2,3-d]pyrimidin-7-yl]-2-hydroxycyclopentyl]methyl sulfamic acid ester]",change in pTAU(AT8) forms,wild-type neurons,did not show the change
same,viability,[1],reduced viability
same,"cellular senescence (p21, LAMNB1 Western blotting)",APP^swe/swe neurons [2],increased cellular senescence
same,"proteostasis (BAG1, BAG3 Western blotting)",APP^swe/swe neurons [2],loss of proteostasis
same,nuclear roundness (nuclear lamina defects),AD neurons; AD neurons (FIG. 28A),decreased nuclear roundness
same,nuclear area (cellular senescence),AD neurons; AD neurons (FIG. 28B),increased nuclear area
same,pATM induction (DNA damage),[3],pATM induction
same,conjugation of NEDD8 to target proteins,[4],effectively block the conjugation of NEDD8 to target proteins; also recorded: blocks conjugation of NEDD8 to target proteins
same,β-gal positive neurons (senescence),APP^swe/swe neurons [5],induction of showing β-gal positive
same,viability,[6],reduced viability
same,changes in phosphorylated Tau,"APP^swe/swe neurons [7]; 1 μM from DIV50-DIV60, App^swe/swe versus wild-type neurons (FIGS. 4C-4F)",AD-specific changes in phosphorylated Tau
same,high molecular weight form of pTAU(AT8),APP^swe/swe neurons [7]; AD neurons (FIG. 23A-23B),increase in the high molecular weight form
same,major form of pTAU(AT8),APP^swe/swe neurons [7]; AD neurons (FIG. 23A-23B),decrease in major form of pTAU(AT8)
same,cellular hallmarks of age,"[8]; 1 μM for 7 or 10 days, AD-PSC (APP^swe/swe) cortical neurons (FIGS. 3A-3E)",induces cellular hallmarks of age
same,"cellular age (protein aggregation, senescence, histone methylation)","[8]; wild-type or APP^swe/swe neurons, versus DMSO (FIG. 27)",induces cellular age in both wild-type and disease backgrounds
